Reference: patent US20120034210A1, “COMPOSITIONS FOR POTENTIATING APOPOSIS SIGNALS IN TUMOUR CELLS” (INSTITUT BERGONIE, priority 2008, published 2012)
Entries after “also recorded” stand apart in the source; their conditions may differ. Peptide text beside a SMILES is read from it. * marks the point of attachment. Cbz = O=C(OCc1ccccc1)*

Key:
[1] = system: DISC macro-complex (Fas/FADD/Caspase-8); assay: DISC formation: Fas immunoprecipitation and Western blot; format: cell-based, human; conditions: for recruitment of FADD and DISC formation: non-permeant chelators lowering extracellular calcium
Method: Cells were incubated with 1 μg/ml APO1-3 for 30 minutes at 4° C. After washing, cells were incubated for 15 minutes at 4° C. (0 minutes) or at 37° C. (15 minutes) and then lysed for 30 minutes at 4° C. in a lysis buffer (25 mM HEPES pH 7.4, 1% Triton X-100, 150 mM NaCl, 2 mM EDTA, a cocktail including protease inhibitors (Sigma)). The lysed cells were then centrifugated for 15 minutes at 15000 rpm in order to eliminate genomic DNA, and the supernatant was kept. The sepharose beads which were coupled with protein A were added to the lysate and the mixture was incubated for 2 hours. The beads were recovered, washed intensively and the immunoprecipitated proteins were re-suspended in a denaturing and reducing buffer (0.01M Tris-HCl pH6.8, 10% glycerol (v/v), 85 mM sodium dodecyl sulfate (SDS), 5% (v/v) […] and 0.005% (w/v) bromophenol blue) then heated at 100° C. for 5 minutes. The samples were deposited in an acrylamide/Bisacrylamide gel and separated by electrophoresis. The proteins were transferred from the gel into a nitrocellulose membrane using a semi-dry medium transfer technique for 2 hours at constant amperage (0.8 mA/cm^2). […] After transfer, the nitrocellulose membrane was saturated with proteins for 30 minutes with a TBST buffer (50 mM Tris pH=8, 0.15M sodium chloride, 0.05% (v/v) Tween-20) containing 5% (w/v) skimmed powdered milk (TBSTM). After washing with TBST, the membrane was incubated for 2 hours with the primary antibody in TBST. The membrane was washed intensively then incubated for one hour with TBST containing the secondary peroxidase-coupled antibody. […] This solution contained a substrate metabolised by peroxidase to yield a luminescent compound, which allowed marking a radiographic film (Amersham).

[2] = system: T and B leukemia/lymphoma cell lines and activated PBLs treated with FasL; assay: Fas/CD95-mediated cell death (MTT test); format: cell-based, human; conditions: for sensitivity to the CD95-mediated apoptotic signal (% cell death): down-modulation of extracellular calcium, T and B-cell lines, vs untreated
Method: 2 to 4.10^4 cells were deposited in wells in a 96-well plate. The cells were incubated, in the presence of the different reactants for the times specified, at 37° C. in a final volume of 100 or 200 μl.
The MTT test enabled to measure the activity of a mitochondrial enzyme, the dehydrogenase succinate which transforms MTT (or 3-(4,5-dimethylthiazol-2-yl)-2,5-diphenyltetrazolium) bromide originally yellow in colour and soluble, into blue formazan crystals, insoluble in aqueous phase. Upon completion of the different treatments, the living cells were quantified by adding in each well 15 μl PBS (Phosphate Buffered Saline) containing 5 mg/ml MTT. […] Spectrophotometric reading of absorbance was done at 570 nm. The measurement of the optical density is directly proportional to the number of living cells and the percentage of cell death was calculated with the following formula: 100-[(DO treated cells/DO non-treated cells)*100].

[3] = system: Raji, BL2, Jurkat cell lines and activated PBL; assay: Apoptosis % by loss of mitochondrial membrane potential; format: cell-based, human; conditions: for induction of cell death via DR4/DR5 with calcium chelation: BL2 cell line, 24 h, prior incubation 15 minutes BAPTA-AM 1 μM
Method: 2 to 4.10^4 cells were deposited in wells in a 96-well plate. The cells were incubated, in the presence of the different reactants for the times specified, at 37° C. in a final volume of 100 or 200 μl. The apoptotic cells were identified in the cellular populations by measuring mitochondrial de-polarisation. […] These potentiometric probes allowed monitoring the variations of the mitochondrial membrane potential. […] Following cell treatment with the different drugs, the former were placed in the presence of TMRM or DIOC6 at 10 nM concentration, for 20 minutes at 37° C. then the fluorescence of the cells was analysed by flow cytometry.

Raji cells = assay: Raji B lymphoma tumour growth in Rag2-/-γ-/- mice; format: in vivo; conditions: Raji s.c.; single agent; Rituximab 2 mg/kg, Zoledronate 4 mg/kg
Method: The implantation of the tumours was done subcutaneously in Rag2−/−γ−/− mice flank aged from 5 to 7 weeks. Following implantation of the tumours, the mice were divided in groups of 8 to 10 animals for each treatment. The size of the tumour was assessed every day by measuring its width (w) and its length (I). Its volume was calculated according to the formula: V=lw^2/2. At the end of the experiment, the animals were sacrified, the tumour weight was measured.
From 10^6 Raji cells were implanted subcutaneously in mice flank. The effects of Rituximab alone, of Zoledronate alone, are assessed on the growth of tumours. Rituximab (2 mg/kg) was delivered 3 times a week, Zoledronate was delivered 1 time a week.

[4] = system: intracellular calcium concentration; assay: Intracellular Ca2+ concentration, indo-1 (micro)spectrofluorimetry; format: cell-based, human
Method: Principle: [Ca^2+]i was measured by microspectrofluorimetry using a calcium sensitive fluorescent probe: indo-1. When excited at 360 nm wavelength, the so-called monoexcitation/double emission indo-1 probe transmitted back in a spectrum ranging from 400 to 500 nm. Binding of Ca^2+ to indo-1 caused displacement of the emission spectrum after excitation. The emission maximum in the unbound form was located around 480 nm. The emission of the complexed form was around 405 nm. An increase of calcium concentration thus caused the emission to increase to 405 nm and the emission to decrease to 480 nm. The ratio of both fluorescence intensities allowed to be independent from the quantity of the probe and to determine the [Ca^2+]i according to the Grynkiewicz equation:
[Ca^2+]i(nM)=Kd.β×(R−Rmin)/(Rmax−R)
Rmax, Rmin and Kd. β were determined by combining electrophysiology (patch clamp) and spectrofluorimetry. Rmax was determined by placing in the patch pipette a medium containing 10 mM CaCl2. Rmin was obtained by placing as an intrapipette solution a calcium-deprived medium (10 mM EGTA).
The cells were then rinsed with HBSS (800 rpm centrifugation for 2 minutes) and placed in an observation chamber on a glass coverslip. […] The excitation light is supplied by a Xenon lamp (100W). […] The substances to be tested were applied using a glass pipette positioned at some twenty μm of the studied cell and connected to a pneumatic system.
The principle as well as the loading of the cells were identical with the measurement on single cells. In such a case, approx. 40,000 cells were placed in a quartz tub under constant agitation. The tub was then placed in a Hitachi spectrofluorimeter whereof the excitation monochromator was set to 350 nm. […] The signals were transmitted to a computer via an analogue/digital converter. So as to be able to apply the Grynkiewicz equation (see above) and translate the fluorescence ratios measured in calcium values, the calibration parameters were entered into the software. The substances to be tested were applied directly in the tube under constant agitation.

O=C(O)CN(CC(=O)O)c1ccccc1OCCOc1ccccc1N(CC(=O)O)CC(=O)O [BAPTA, 1,2-bis(o-aminophenoxy)ethane-N,N,N′,N′-tetraacetic acid]
recruitment of FADD and DISC formation ([1]; H9 cells, CD95 stimulation): enhanced the recruitment of FADD and the DISC formation; also recorded: enhanced recruitment of FADD as well as enhanced DISC formation
sensitivity to the CD95-mediated apoptotic signal (% cell death) [2]: increased the sensitivity of T and B-cell lines to the CD95-mediated apoptotic signal

O=C(O)CN(CCOCCOCCN(CC(=O)O)CC(=O)O)CC(=O)O [EGTA, glycol-bis(2-aminoethylether)-N,N,N′,N′-tetraacetic acid]
recruitment of FADD and DISC formation ([1]; H9 cells, CD95 stimulation): enhanced the recruitment of FADD and the DISC formation; also recorded: enhanced recruitment of FADD as well as enhanced DISC formation
sensitivity to the CD95-mediated apoptotic signal (% cell death) [2]: increased the sensitivity of T and B-cell lines to the CD95-mediated apoptotic signal

CC(C)C[C@@H](C=O)NC(=O)[C@H](CC(C)C)NC(=O)[C@H](CC(C)C)NC(=O)OCc1ccccc1 [MG132] (Cbz-Leu-Leu-Leu-aldehyde)
induction of cell death via DR4/DR5 with calcium chelation [3]: potentiated by calcium chelation

Clc1ccc(C(c2ccc(Cl)cc2)n2cc[n+](CC(OCc3ccc(Cl)cc3Cl)c3ccc(Cl)cc3Cl)c2)cc1 (stereo not shown) [calmidazolium]
effect on CD95-mediated apoptotic signal ([2]; calmodulin antagonist or CaMKII inhibitory peptide): did not alter the CD95-mediated apoptotic signal

CNCCC(Oc1ccc(C(F)(F)F)cc1)c1ccccc1 (stereo not shown) [fluoxetine]
induction of cell death via DR4/DR5 with calcium chelation [3]: potentiated by calcium chelation

C[C@H](CCC(=O)O)C[C@H](C)C[C@H](C)C(=O)/C=C(\O)[C@H](C)C[C@H](C)C/C=C/[C@@H](C)[C@@H](O)[C@@H](C)[C@@H](O)C[C@@H]1CC[C@@](C)([C@H]2CC[C@@](C)([C@@H](C)O)O2)O1 [ionomycine]
DISC formation / FADD recruitment upon CD95 stimulation ([1]; H9, Jurkat, activated PBTs, non-cytotoxic concentrations, vs untreated cells): prevented the recruitment of FADD to CD95 and the DISC formation; also recorded: absence of FADD recruitment and DISC formation
formation of the DISC macro-complex ([1]; H9 cells, BAPTA-AM 1-10 μM or ionomycine 1 μM pre-incubation, then anti-Fas APO1-3 1 μg/ml 15 min 37° C., vs untreated cells): interfered with the formation of the DISC complex
FADD binding and activation of caspase-8 ([1]; H9 cells, ionomycine 1 μM, anti-Fas APO1-3): decreased the FADD binding and the activation of caspase-8

Oc1ccc(C=Cc2cc(O)cc(O)c2)cc1 [resveratrol]
induction of cell death via DR4/DR5 with calcium chelation [3]: potentiated by calcium chelation

C1CCC[C@H]2CCCN3CC[C@@H](CCCCCC[C@@H]4CCCN5CC[C@@H](CC1)O[C@@H]45)O[C@@H]23 [xestospongin C]
FADD binding to CD95 ([1]; IP3-R antagonist, CD95 stimulation): significantly promoted FADD binding to CD95; also recorded: significant increase in FADD binding to CD95

Rituximab: anti-CD20 monoclonal antibody
death signalling and apoptosis induced by Rituximab in low calcium medium ([3]; Raji, defined medium 0.5 mM vs 4 mM calcium): allowed potentiating the death signalling and apoptosis
cell death signal induced by Rituximab with added extracellular calcium ([3]; Raji, medium 3 mM vs 0.8 mM calcium): inhibited the cell death signal
tumour mass vs vehicle (Raji cells): not significantly affected

B1: TRAIL: soluble recombinant human TRAIL (TNF-related Apoptosis-Inducing Ligand), binds DR4 or DR5 (protein, UniProt P50591 39-281, looked up)
extracellular domain: TNELKQMQDKYSKSGIACFLKEDDSYWDPNDEESMNSPCWQVKWQLRQLVRKMILRTSEETISTVQEKQQNISPLVRERGPQRVAAHITGTRGRSNTLSSPNSKNEKALGRKINSWESSRSGHSFLSNLHLRNGELVIHEKGFYYIYSQTYFRFQEEIKENTKNDKQMVQYIYKYTSYPDPILLMKSARNSCWSKDAEYGLYSIYQGGIFELKENDRIFVSVTNEHLIDMDHEASFFGAFLVG
modifications: extracellular domain
induction of cell death via DR4/DR5 with calcium chelation [3]: potentiated by calcium chelation

B2: CD95L: soluble CD95 ligand (Fas ligand), gp190-CD95L generated by Legembre et al. (protein, UniProt P48023 103-281, looked up)
extracellular domain: QLFHLQKELAELRESTSQMHTASSLEKQIGHPSPPPEKKELRKVAHLTGKSNSRSMPLEWEDTYGIVLLSGVKYKKGGLVINETGLYFVYSKVYFRGQSCNNLPLSHKVYMRNSKYPQDLVMMEGKMMSYCTTGQMWARSSYLGAVFNLTSADHLYVNVSELSLVNFEESQTFFGLYKL
modifications: extracellular domain gp190 fusion
intracellular calcium peak upon CD95L ([4]; H9 and Jurkat, rapid and transient, basal level 100 to 150 nM): up to 700 nM
calcium response to CD95L ([4]; Jurkat CD95-Q257K vs parental cell line): the calcium response remained unaltered
increase in [Ca2+]i upon CD95L ([4]; cells devoid of FADD, caspase-8 or caspase-8 and -10): did not display any modification of the increase in [Ca^2+]i
